Legend:
[1] = molecular target: T1, 5α-reductase (Homo sapiens, UniProt P31213); experiment: In vitro assay of 5α-reductase inhibition (particulate fraction from hyperplastic human prostates, [14C]testosterone); format: biochemical; details: human prostate particulate fraction, 1 μM [14C]testosterone, pH 5.5, 37° C., 30 min
T1 construct: particulate fraction from homogenates of hyperplastic human prostates as the enzyme source; from tissue; host or cells: hyperplastic human prostate, particulate fraction (140,000 x g pellet of homogenate)
T1 sequence (P31213 1-254): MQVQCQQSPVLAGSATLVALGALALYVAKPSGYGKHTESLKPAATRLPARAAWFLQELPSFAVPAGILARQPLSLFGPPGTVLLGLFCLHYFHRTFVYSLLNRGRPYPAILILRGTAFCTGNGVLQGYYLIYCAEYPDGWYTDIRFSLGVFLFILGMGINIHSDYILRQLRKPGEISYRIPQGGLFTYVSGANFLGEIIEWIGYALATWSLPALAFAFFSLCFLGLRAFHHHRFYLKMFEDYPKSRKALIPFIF
Method: Inhibition of 5α-reductase was evaluated using the particulate fraction from homogenates of hyperplastic human prostates as the enzyme source. The particulate fraction was prepared centrifuging prostate homogenate at 140,000 x g. The resulting pellet, washed several times, was resuspended in buffer and stored at -80° C. in aliquots containing ≈10 mg protein/ml.
The assay for 5α-reductase was done in a final volume of 0.5 ml, in 40 mM TRIS-HCl buffer pH 5.5, containing I mM dithiothreitol, 5 mM NADPH, 1 μM [^14 C]testosterone, an aliquot of the enzyme preparation and various concentrations of the inhibitors. After 30 min incubation at 37° C. the reaction was terminated by addition of 2 ml cold diethyl ether and the organic phase was separated, evaporated under N2 and resuspended in ethyl acetate. Testosterone metabolites in this extract were separated in TLC on silica gel F 254 plates (Merck), using chloroform, acetone and n-hexane (2:1:2) as developing solvent system. Radioactivity on the plate was scanned and analysed from quantitative plots printed by a TLC-analyzer (Berthold). The fractional 5α-reduction of testosterone was calculated by relating the ^14 C-radioactivity in the 5α-reduced metabolites (5α-dihydrotesterone, […]) regions to the total radioactivity in the testosterone and 5α-reduced metabolites regions.

[2] = system: 5α-reductase; experiment: In vivo inhibition of 5α-reductase (testosterone-induced prostate hypertrophy in castrated rats); design: species or system rat; details: castrated testosterone-implanted rats, once daily for 7 days, ventral prostate weight
Method: The standard test for the antiandrogenic effect in rats was used. Prepuberal 22-day-old male rats were castrated via scrotal incision under light ether anaesthesia. On the seventh day after orchiectomy, androgen replacement was performed via subcutaneous implantation of 1 cm-long Silastic® tube (Dow-Corning, model No. 602-265) filled with a mixture of 25% testosterone and 75% cholesterol. […] Twenty four hours after the last dose the rats were sacrificed and the ventral prostate was removed and weighed. Control animals (testosterone controls) received the vehicle (0.5 ml/kg of 0.5% Methocel/0.4% Tween 80). One group of castrated rats was not implanted with testosterone (castrated controls).
The mean percentage of inhibition of the T-induced hypertrophic response of the prostate was calculated according to the following formula: […]
where WTC, WCC and WI are the mean prostate weight of testosterone control, castrated control and inhibitor treated group, respectively.

Row | Structure (SMILES) | IC50 [1] [nM] | % Inhibition of prostate weight at 3 mg/kg/day p.o. [2] [%]
1 | CC(C)C(NC(=O)[C@H]1CC[C@H]2[C@@H]3CC[C@H]4NC(=O)C=C[C@]4(C)[C@H]3CC[C@]12C)C(=O)C(F)(F)F (stereo partly drawn) [Compound 7, N-[1,1,1-trifluoro-4-methyl-2-oxopent-3-yl]3-oxo-4-aza-5α-androst-1-ene-17β-carboxamide] | 8 | 
2 | CC(NC(=O)[C@H]1CC[C@H]2[C@@H]3CC[C@H]4NC(=O)C=C[C@]4(C)[C@H]3CC[C@]12C)C(=O)C(F)(F)F (stereo partly drawn) [Compound 5, N-[1,1,1-trifluoro-2-oxobut-3-yl]3-oxo-4-aza-5α-androst-1-ene-17β-carboxamide] | 16 | 58
3 | CC(C)(NC(=O)[C@H]1CC[C@H]2[C@@H]3CC[C@H]4NC(=O)C=C[C@]4(C)[C@H]3CC[C@]12C)C(=O)C(F)(F)F [Compound 22, N-[1,1,1-trifluoro-3-methyl-2-oxobut-3-yl]3-oxo-4-aza-5α-androst-1-ene-17β-carboxamide] | 14 | 50

From patent US5418238A, “17β-substituted 4-aza-5α-androstan-3-one derivatives” (Farmitalia Carlo Erba S.R.L., priority 1992, dated 1995)
